# Values joined by “and” are separate entries in the source; they are usually repeats but may differ in a detail not shown here. Equal entries are not always repeated. Marks after values point to notes of the source that are not given here.
# Columns and labels:
# finishing pigs = test: Meta-analysis (3-trial combined) of morbidity, mortality and F/G in late finishing pigs fed Na-DMG (Examples 5 and 7); format: in vivo
# Text: Three studies were compiled to evaluate the effects of dietary supplementation of Na-DMG (78%) on morbidity and mortality in finishing pigs. In each study, pigs were fed either a Control diet or diet containing Na-DMG at 0.50 lb/ton from approximately 180 lb of body weight until harvested at 290 lb for a period of 6 to 8 weeks. […] Reasons of morbidity and mortality included, but not limited to, lameness, ileitis, bacterial infection, injury, prolapse, intestinal torsion, stomach ulcers, abdominal rupture, bloat, failure to eat.
# (§1) Animals produce greenhouse gases due to biological processes for growth and maintenance functions. Pig production would therefore be a source of greenhouse gases and wean to finish production would result in production of carbon dioxide, methane, and nitrous oxide emissions. Using the Iowa Pork Industry's sustainability calculator, we calculated the impact feedings of DMG in late finishing would have on greenhouse gas emissions. […] We then took similar estimates for early performance and estimated F/G and mortality for an entire grow-out period to use in the calculator. The calculator provides equivalent lb. of carbon dioxide per lb. or market weight for comparison purposes. By adding DMG in late finishing, carbon dioxide emissions were reduced by 3% during the entire wean to finish grow-out.
# [1] = tested on: commercial finishing pigs; test: Growth performance, livability and carcass characteristics of finishing pigs fed DMG (Example 3); format: in vivo; conditions: for ADFI / Carcass yield / Closeout ADG / Closeout G/F / End BW / Fat depth / Fat-free carcass lean / Hot carcass weight / Loin depth / Non-selected pigs (lights and culls) / Morbidity / Mortality / Pigs sold to primary market: 8-wk
# Text: To evaluate the impact of increasing dietary levels of 78% sodium dimethylglycine (DMG) on growth performance, livability, and carcass characteristics of commercial finishing pigs, a total of total of 1,115 mixed-sex finishing pigs (initial BW=70.1±1.8 kg) were housed in pens with 25 to 27 pigs per pen. Pens within block were assigned randomly to one of four dietary treatments containing 0 (Control), 0.25 (DMG_0.25), 0.5 (DMG_0.5) or 1.0 (DMG_1.0) g DMG/kg of feed with 11 replicates per treatment. This experiment extended over an 8-wk period until pigs were harvested at 125.4±0.8 kg of BW.
# Data were analyzed using the MIXED procedure of SAS, and preplanned orthogonal contrasts were conducted to evaluate pairwise comparisons as well as linear and quadratic effects related to the increased levels of DMG. While no linear effect was observed, there was a tendency for a quadratic response in closeout feed efficiency (G/F, P=0.08) and the percentage of pigs with morbidity (P=0.06), with the most favorable responses found in pigs fed DMG_0.25 (Table 2).
# broilers = conditions: cited from earlier work
# rats = conditions: when folate was sufficient; cited from earlier work
# sows = sows fed DMG from day 105 of gestation until day 3 of lactation; cited from earlier work
# [2] = tested on: commercial finishing pigs (PIC 800×PIC 1050); test: Carcass characteristics of finishing pigs fed increasing dietary 78% Na-DMG (Example 1); format: in vivo; conditions: for 10th-rib backfat depth reduction (numerical) / Loin depth improvement compared to Control: carcasses; for Loin depth improvement compared to Control: P<0.05
# Protocol: A study was conducted to evaluate the impact of increasing dietary levels of 78% Na-DMG on carcass characteristics of commercial finishing pigs (PIC 800×PIC 1050). A total of 723 mixed-sex finishing pigs (initial BW=179.5±1.0 lb) were housed in pens with 25 to 27 pigs per pen. […] This experiment extended over a 6-week period until pigs were harvested at 292.5±1.7 lb of BW.
# growing pigs = test: Incidence of lameness in pigs fed DMG (Example 4); format: in vivo
# Protocol: A total of 1,180 growing pigs (initial BW=51.4±1.0 lb) were housed in pens with 25 to 27 pigs per pen. […] This experiment extended over a 17-wk period until pigs were harvested at 292.5±1.7 lb of BW. Signs of lameness were recorded, and percentage of pigs removed to hospital pens due to lameness were calculated (Table 3).
# [3] = Calculated wean-to-finish performance and greenhouse gas emissions, Pork Sustainability Calculator (Example 7); set-up: species or system pigs; conditions: DMG @ 0.5 lb/ton in late finishing
# Text: as §1
# lactating sows = test: Serum non-esterified fatty acids (NEFA) in lactating sows (Example 6); format: in vivo, pigs; conditions: 445 mg Na-DMG per day, measured at weaning
# Text: Serum non-esterified fatty acids (NEFA) are molecules released from adipose tissue during periods of energy demand or catabolic status. In research of energy metabolism, NEFA level has been used as biomarker to assess balance between fat mobilization and energy expenditure.
# sows (PIC 1050) = test: Milk fat content in sows fed Na-DMG (78%) (Example 2); format: in vivo, pigs
# [4] = Na-DMG 0.50 lb/ton, approx. 180 to 290 lb BW, 6 to 8 weeks
smiles,measurement,setting,value
"CN(C)CC(=O)O [DMG, N,N-dimethylglycine]","Closeout F/G, late finishing testing period",finishing pigs; DMG @ 0.5 lb/ton,3.30
same,"Closeout F/G, late finishing testing period, % Change vs Control",finishing pigs; DMG @ 0.5 lb/ton,−4.6%
same,"Mortality, late finishing testing period, % Change vs Control",finishing pigs; DMG @ 0.5 lb/ton,−39.0%
same,Reduction of morbidity compared to Control,finishing pigs; Na-DMG 0.50 lb/ton,72%
same,Reduction of total removal compared to Control,finishing pigs; Na-DMG 0.50 lb/ton,53%
same,Morbidity,finishing pigs; [4],0.36%
same,Mortality,finishing pigs; [4],1.08%
same,Non-selected (culls and lights),finishing pigs; [4],5.48%
same,Pigs sold to primary market,finishing pigs; [4],93.1%
same,Total pigs finished,finishing pigs; [4],98.6%
same,Total removal,finishing pigs; [4],1.44%
same,"Carcass characteristics (hot carcass weight, carcass yield, fat depth, loin depth, fat-free carcass lean)","[1]; 0.25, 0.5 and 1.0 g DMG/kg feed vs Control",not different among treatments
same,ADFI,[1]; 0.25 g DMG/kg feed,3.00^b kg/day
same,Carcass yield,[1]; 0.25 g DMG/kg feed,72.6%
same,Closeout ADG,[1]; 0.25 g DMG/kg feed,1.01 kg/day and 1.01^y kg/day
same,Closeout G/F,[1]; 0.25 g DMG/kg feed,0.337
same,End BW,[1]; 0.25 g DMG/kg feed,126.4 kg
same,Fat depth,[1]; 0.25 g DMG/kg feed,16.6 mm
same,Fat-free carcass lean,[1]; 0.25 g DMG/kg feed,56.2%
same,Hot carcass weight,[1]; 0.25 g DMG/kg feed,93.5 kg
same,Loin depth,[1]; 0.25 g DMG/kg feed,62.5 mm
same,Non-selected pigs (lights and culls),[1]; 0.25 g DMG/kg feed,8.7%
same,Increase in closeout ADG compared with Control,"[1]; 0.25 g DMG/kg feed, P=0.02",6%
same,Increase in closeout G/F compared with Control,"[1]; 0.25 g DMG/kg feed, P=0.05",4%
same,ADFI,[1]; 0.5 g DMG/kg feed,2.93^a kg/day
same,Carcass yield,[1]; 0.5 g DMG/kg feed,73.6%
same,Closeout ADG,[1]; 0.5 g DMG/kg feed,0.95^x kg/day
same,Closeout G/F,[1]; 0.5 g DMG/kg feed,0.326
same,End BW,[1]; 0.5 g DMG/kg feed,124.9 kg
same,Fat depth,[1]; 0.5 g DMG/kg feed,17.0 mm
same,Fat-free carcass lean,[1]; 0.5 g DMG/kg feed,56.0%
same,Hot carcass weight,[1]; 0.5 g DMG/kg feed,94.1 kg
same,Loin depth,[1]; 0.5 g DMG/kg feed,62.2 mm
same,Morbidity,[1]; 0.5 g DMG/kg feed,0.7^cd %
same,Mortality,[1]; 0.5 g DMG/kg feed,2.5^d %
same,Non-selected pigs (lights and culls),[1]; 0.5 g DMG/kg feed,9.4%
same,Pigs sold to primary market,[1]; 0.5 g DMG/kg feed,87.4%
same,ADFI,[1]; 1.0 g DMG/kg feed,2.99^ab kg/day
same,Carcass yield,[1]; 1.0 g DMG/kg feed,73.8%
same,Closeout ADG,[1]; 1.0 g DMG/kg feed,0.97^xy kg/day
same,Closeout G/F,[1]; 1.0 g DMG/kg feed,0.323
same,End BW,[1]; 1.0 g DMG/kg feed,125.8 kg
same,Fat depth,[1]; 1.0 g DMG/kg feed,16.8 mm
same,Fat-free carcass lean,[1]; 1.0 g DMG/kg feed,56.0%
same,Hot carcass weight,[1]; 1.0 g DMG/kg feed,94.2 kg
same,Loin depth,[1]; 1.0 g DMG/kg feed,61.7 mm
same,Morbidity,[1]; 1.0 g DMG/kg feed,2.2^d %
same,Mortality,[1]; 1.0 g DMG/kg feed,1.4^cd %
same,Non-selected pigs (lights and culls),[1]; 1.0 g DMG/kg feed,6.5%
same,Pigs sold to primary market,[1]; 1.0 g DMG/kg feed,90.0%
same,Growth performance and livability compared with Control,"[1]; DMG at 0.5 and 1.0 g/kg, P>0.10",not different compared with Control
same,Nutrient digestibility,broilers,improved nutrient digestibility
same,Plasma homocysteine level,rats,significantly reduced
same,Nutrient digestibility,sows,improved nutrient digestibility
same,Fat-free carcass lean,"[2]; DMG at 0.25 lb/ton, P<0.10",tended to be improved
same,10th-rib backfat depth reduction (numerical),[2]; DMG at 0.25 lb/ton,3.4%
same,Loin depth improvement compared to Control,[2]; DMG at 0.25 lb/ton,2.5%
same,10th-rib backfat depth reduction (numerical),[2]; DMG at 0.50 lb/ton,2.3%
same,Loin depth improvement compared to Control,[2]; DMG at 0.75 lb/ton,3.5%
same,"Loin depth, response to increasing dietary DMG level","[2]; increasing dietary DMG level, P=0.04",linearly improved
same,Lameness (pigs removed to hospital pens due to lameness),"growing pigs; DMG_0.25 (0.25 lb DMG/ton feed), 17-wk",0.3%^d
same,Lameness (pigs removed to hospital pens due to lameness),"growing pigs; DMG_0.50 (0.50 lb DMG/ton feed), 17-wk",0.7%^cd
same,Lameness (pigs removed to hospital pens due to lameness),"growing pigs; DMG_0.75, 17-wk",1.4%^cd
same,Incidence of lameness compared to Control,"growing pigs; regardless of dietary concentration, statistically (P<0.10) or numerically (P>0.10)",reduced incidence of lameness
same,"Calculated wean-to-finish closeout F/G, % Change vs Control",[3],−2.6%
same,"Calculated wean-to-finish mortality, % Change vs Control",[3],−18.3%
same,Calculated wean-to-finish mortality,[3]; early mortality rate of 2% combined,3.08%
same,Calculated wean-to-finish closeout F/G,[3]; feed budget of 353 lb per pig combined,2.58
same,Serum NEFA reduction compared to Control,lactating sows,32%
same,"Total milk fat, % (Day 10-14 in lactation)",sows (PIC 1050); 0.5 lb/ton from day 100 of gestation through lactation,6.114%
same,"Total milk fat, % (Day 10-14 in lactation)",sows (PIC 1050); 0.5 lb/ton from farrowing through lactation,5.973%

# Source: patent US20250281440A1, “METHOD TO IMPROVE GROWTH PERFORMANCE, LIVABILITY, CARCASS CHARACTERISTICS AND/OR MILK QUALITY IN SWINE” (NutriQuest, LLC, priority 2024, published 2025)
